The nature of this data set: Delivery and clearance of fluorescent molecule in suprachoroidal space of live rabbits. Format: in vivo. Particulars: live rabbit. The procedure: The delivery of a fluorescent molecule (sodium fluorescein) to the suprachoroidal space was evaluated using rabbits according to approved live animal experimental protocols. A one dimensional scan of the eye (through line of sight) was taken within the first five minutes after injection to determine the dispersion of the fluorescent molecule in the eye (FIG. 14). The y-axis indicates the fluorescent intensity (i.e., the concentration) and the x-axis represents the position in the eye from front (160) to back (0). Thus, the results illustrate that within the first 5 minutes after injection, the fluorescein had already flowed through the suprachoroidal space to the back of the eye, with some remaining at the initial insertion site.
Similar scans were taken to evaluate the rate of clearance of fluorescein from the suprachoroidal space over time (FIG. 15). The fluorescent intensity was measured in two regions of the eye (the suprachoroidal space and mid-vitreous region) over time.

Structures are written as SMILES.

Consider `O=C1OC2(c3ccc(O)cc3Oc3cc(O)ccc32)c2ccccc21` [sodium fluorescein], for which, where the note is “fluorescent intensity over time”, the “Distribution suprachoroidal space vs mid-vitreous region” value is given as “remains in the suprachoroidal space without passing into the mid-vitreous region”. Moreover, the “Time to substantial clearance from the suprachoroidal space” value (suprachoroidal injection) is at most 24 h. Besides, the “Time after injection by which it had flowed through the suprachoroidal space to the back of the eye” value (suprachoroidal injection, line of sight scan) is at most 5 min.

The values above are taken from US10905586B2, “Methods and devices for drug delivery to ocular tissue using microneedle” (Emory University, priority 2006, dated 2021).
